From patent publication US5889029A, “Use of cotinine in treating psychiatric disorders” (priority 1997, dated 1999)

Experiments:
Serotonin (5HT1A) = molecular target: T1, Serotonin (5HT1A) (Bos taurus, UniProt F6Q2H9); experiment: Serotonin (5HT1A) Binding Assay; design: species or system Bovine; conditions: 10^-6 M; Bovine hippocampal membranes; [3H]-8-OH-DPAT 1.0 nM; read-out: Receptor Binding Activity Percent Inhibition Average (N = 2)
T1 construct: Bovine hippocampal membranes; from tissue; host or cells: bovine hippocampal membranes
T1 sequence (F6Q2H9 1-422): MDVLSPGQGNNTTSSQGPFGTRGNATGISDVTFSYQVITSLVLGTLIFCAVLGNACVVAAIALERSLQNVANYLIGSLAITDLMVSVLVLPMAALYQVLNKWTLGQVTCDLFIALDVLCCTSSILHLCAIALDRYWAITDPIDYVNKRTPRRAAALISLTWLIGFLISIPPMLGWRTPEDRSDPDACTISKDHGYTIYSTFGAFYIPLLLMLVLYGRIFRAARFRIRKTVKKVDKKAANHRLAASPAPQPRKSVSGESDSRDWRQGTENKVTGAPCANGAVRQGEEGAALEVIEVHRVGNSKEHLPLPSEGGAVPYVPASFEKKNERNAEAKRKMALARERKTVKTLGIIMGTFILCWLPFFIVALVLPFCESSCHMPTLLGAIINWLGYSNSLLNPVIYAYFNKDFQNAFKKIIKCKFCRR

Histamine (H2) = molecular target: T2, Histamine (H2) (Cavia porcellus, UniProt P47747); experiment: Histamine (H2) Binding Assay; design: species or system Guinea pig; conditions: 10^-6 M; Guinea pig striatal membranes; [3H]Tiotidine 4.0 nM; read-out: Receptor Binding Activity Percent Inhibition Average (N = 2)
T2 construct: Guinea pig striatal membranes; from tissue; host or cells: guinea pig striatal membranes
T2 sequence (P47747 whole entry): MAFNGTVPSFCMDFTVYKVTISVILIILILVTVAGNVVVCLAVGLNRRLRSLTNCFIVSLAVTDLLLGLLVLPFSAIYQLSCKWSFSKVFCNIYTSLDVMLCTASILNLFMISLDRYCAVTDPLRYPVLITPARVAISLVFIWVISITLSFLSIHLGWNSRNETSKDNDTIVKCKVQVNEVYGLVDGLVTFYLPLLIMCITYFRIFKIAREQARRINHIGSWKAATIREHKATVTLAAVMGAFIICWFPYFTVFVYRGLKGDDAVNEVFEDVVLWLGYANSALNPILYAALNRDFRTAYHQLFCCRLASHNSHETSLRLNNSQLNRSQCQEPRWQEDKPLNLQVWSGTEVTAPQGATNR

[1] = molecular target: T3, Benzodiazepine (Peripheral) (Rattus norvegicus, UniProt P16257); experiment: Benzodiazepine (Peripheral) Binding Assay; conditions: read-out: Receptor Binding Activity Percent Inhibition Average (N = 2)
T3 construct: Rat kidney membranes; from tissue; host or cells: rat kidney membranes

[2] = test system: Serotonin (Non-Selective); experiment: Serotonin (Non-Selective) Binding Assay; conditions: 10^-6 M; Rat cortical membranes; [3H]Lysergic acid diethylamide 5.0 nM
Opiate (Delta) = molecular target: T4, Opiate (Delta) (Rattus norvegicus, UniProt P33533); experiment: Opiate (Delta) Binding Assay; conditions: read-out: Receptor Binding Activity Percent Inhibition Average (N = 2)
T4 construct: Rat forebrain membranes; from tissue; host or cells: rat forebrain membranes
T4 sequence (P33533 whole entry): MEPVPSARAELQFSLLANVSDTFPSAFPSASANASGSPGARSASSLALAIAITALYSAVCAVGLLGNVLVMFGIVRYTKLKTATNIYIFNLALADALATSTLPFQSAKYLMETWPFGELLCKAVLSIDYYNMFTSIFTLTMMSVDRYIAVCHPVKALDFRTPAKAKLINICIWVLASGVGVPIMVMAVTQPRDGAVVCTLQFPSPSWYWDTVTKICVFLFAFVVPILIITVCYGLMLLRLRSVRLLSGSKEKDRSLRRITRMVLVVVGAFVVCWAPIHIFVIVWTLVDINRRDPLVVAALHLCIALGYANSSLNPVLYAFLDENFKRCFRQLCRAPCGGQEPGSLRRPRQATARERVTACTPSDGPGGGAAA

[3] = in the human; in vivo; cited from earlier work
GABA uptake site = molecular target: T5, GABA uptake site (Rattus norvegicus, UniProt P23978); experiment: biochemical; conditions: read-out: Receptor Binding Activity Percent Inhibition Average (N = 2)
T5 construct: Rat cortical membranes; from tissue; host or cells: rat cortical membranes

Dopamine (D1 Central) = molecular target: T6, Dopamine (D1 Central) (Rattus norvegicus, UniProt P18901); experiment: Dopamine (D1 Central) Binding Assay; conditions: 10^-6 M; Rat striatal membranes; [3H]SCH 23390 0.5 nM
T6 construct: Rat striatal membranes; from tissue; host or cells: rat striatal membranes
T6 sequence (P18901 whole entry): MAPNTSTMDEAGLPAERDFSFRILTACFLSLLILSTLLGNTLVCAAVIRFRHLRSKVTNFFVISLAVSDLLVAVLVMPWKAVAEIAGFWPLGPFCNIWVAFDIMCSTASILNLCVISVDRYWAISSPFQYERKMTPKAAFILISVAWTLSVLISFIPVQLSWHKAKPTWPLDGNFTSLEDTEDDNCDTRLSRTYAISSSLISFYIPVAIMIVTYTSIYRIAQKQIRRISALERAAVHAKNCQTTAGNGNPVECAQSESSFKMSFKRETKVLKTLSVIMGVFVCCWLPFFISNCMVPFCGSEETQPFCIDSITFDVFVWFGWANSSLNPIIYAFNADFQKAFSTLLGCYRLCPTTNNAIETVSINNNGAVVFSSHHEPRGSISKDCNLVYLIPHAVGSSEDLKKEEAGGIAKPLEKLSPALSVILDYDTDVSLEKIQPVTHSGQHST

[4] = molecular target: Glycine (Strychnine Insensitive) (Rattus norvegicus, UniProt P35439); experiment: biochemical; format: binding; conditions: read-out: Receptor Binding Activity Percent Inhibition Average (N = 2)
[5] = molecular target: T7, recombinant Rat 5HT7 Clone (Rattus norvegicus, UniProt P32305); experiment: Serotonin--5HT7 Clone Binding Assay; conditions: 10^-6 M, [3H]LSD 2.0 nM, read-out: Receptor Binding Activity Percent Inhibition Average (N = 2)
T7 construct: expressed in transfected cells
T7 sequence (P32305 whole entry): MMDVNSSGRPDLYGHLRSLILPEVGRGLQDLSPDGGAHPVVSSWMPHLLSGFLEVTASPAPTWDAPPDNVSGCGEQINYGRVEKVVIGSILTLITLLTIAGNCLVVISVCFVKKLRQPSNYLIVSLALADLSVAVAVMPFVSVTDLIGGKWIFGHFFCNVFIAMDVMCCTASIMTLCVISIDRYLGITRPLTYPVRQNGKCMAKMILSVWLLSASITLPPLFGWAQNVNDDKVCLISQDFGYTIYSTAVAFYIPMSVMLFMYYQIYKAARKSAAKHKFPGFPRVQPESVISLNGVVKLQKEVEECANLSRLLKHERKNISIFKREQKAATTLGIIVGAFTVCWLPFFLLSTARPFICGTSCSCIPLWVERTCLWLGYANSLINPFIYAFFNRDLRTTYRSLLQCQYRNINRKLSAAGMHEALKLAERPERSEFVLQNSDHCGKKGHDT

dopamine uptake site = molecular target: T8, dopamine uptake site (Cavia porcellus, UniProt H0WCX4); experiment: Dopamine Reuptake Binding Assay; conditions: 10^-6 M; Guinea pig striatal membranes; [3H]WIN,35,428 1.0 nM
T8 construct: Guinea pig striatal membranes; from tissue; host or cells: guinea pig striatal membranes
T8 sequence (H0WCX4 1-619): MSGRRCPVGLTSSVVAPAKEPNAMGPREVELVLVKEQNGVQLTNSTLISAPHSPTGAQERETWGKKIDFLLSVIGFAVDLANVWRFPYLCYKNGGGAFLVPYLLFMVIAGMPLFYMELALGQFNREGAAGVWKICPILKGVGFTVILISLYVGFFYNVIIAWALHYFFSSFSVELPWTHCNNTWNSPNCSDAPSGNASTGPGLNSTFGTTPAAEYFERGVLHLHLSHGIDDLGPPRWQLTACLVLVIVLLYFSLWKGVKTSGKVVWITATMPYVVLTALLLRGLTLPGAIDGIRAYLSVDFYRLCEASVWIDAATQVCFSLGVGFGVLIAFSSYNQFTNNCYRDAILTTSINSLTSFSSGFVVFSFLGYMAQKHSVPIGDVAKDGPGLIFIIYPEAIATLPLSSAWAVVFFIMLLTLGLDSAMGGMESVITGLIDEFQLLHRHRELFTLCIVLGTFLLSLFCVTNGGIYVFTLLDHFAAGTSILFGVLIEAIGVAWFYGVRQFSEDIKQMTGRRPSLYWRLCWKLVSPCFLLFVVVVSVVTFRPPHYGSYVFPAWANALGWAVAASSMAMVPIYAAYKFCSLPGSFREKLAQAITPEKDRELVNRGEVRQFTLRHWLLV

[6] = test system: glutamatergic transmission; conditions: application to CNS sites in vitro; cited from earlier work
Histamine (H3) = molecular target: T9, Histamine (H3) (Rattus norvegicus, UniProt Q9QYN8); experiment: Histamine (H3) Binding Assay; conditions: 10^-6 M; Rat forebrain membranes; [3H]N^a-methylhistamine 0.2 nM; read-out: Receptor Binding Activity Percent Inhibition Average (N = 2)
T9 construct: Rat forebrain membranes; from tissue; host or cells: rat forebrain membranes

[7] = molecular target: T10, Inositol Triphosphate (IP3) (Rattus norvegicus, UniProt P29994); experiment: Inositol Triphosphate (IP3) Binding Assay; conditions: 10^-6 M; Rat cerebellar membranes; [3H]IP3 4.0 nM; read-out: Receptor Binding Activity Percent Inhibition Average (N = 2)
T10 construct: Rat cerebellar membranes; from tissue; host or cells: rat cerebellar membranes
T10 sequence (P29994 whole entry): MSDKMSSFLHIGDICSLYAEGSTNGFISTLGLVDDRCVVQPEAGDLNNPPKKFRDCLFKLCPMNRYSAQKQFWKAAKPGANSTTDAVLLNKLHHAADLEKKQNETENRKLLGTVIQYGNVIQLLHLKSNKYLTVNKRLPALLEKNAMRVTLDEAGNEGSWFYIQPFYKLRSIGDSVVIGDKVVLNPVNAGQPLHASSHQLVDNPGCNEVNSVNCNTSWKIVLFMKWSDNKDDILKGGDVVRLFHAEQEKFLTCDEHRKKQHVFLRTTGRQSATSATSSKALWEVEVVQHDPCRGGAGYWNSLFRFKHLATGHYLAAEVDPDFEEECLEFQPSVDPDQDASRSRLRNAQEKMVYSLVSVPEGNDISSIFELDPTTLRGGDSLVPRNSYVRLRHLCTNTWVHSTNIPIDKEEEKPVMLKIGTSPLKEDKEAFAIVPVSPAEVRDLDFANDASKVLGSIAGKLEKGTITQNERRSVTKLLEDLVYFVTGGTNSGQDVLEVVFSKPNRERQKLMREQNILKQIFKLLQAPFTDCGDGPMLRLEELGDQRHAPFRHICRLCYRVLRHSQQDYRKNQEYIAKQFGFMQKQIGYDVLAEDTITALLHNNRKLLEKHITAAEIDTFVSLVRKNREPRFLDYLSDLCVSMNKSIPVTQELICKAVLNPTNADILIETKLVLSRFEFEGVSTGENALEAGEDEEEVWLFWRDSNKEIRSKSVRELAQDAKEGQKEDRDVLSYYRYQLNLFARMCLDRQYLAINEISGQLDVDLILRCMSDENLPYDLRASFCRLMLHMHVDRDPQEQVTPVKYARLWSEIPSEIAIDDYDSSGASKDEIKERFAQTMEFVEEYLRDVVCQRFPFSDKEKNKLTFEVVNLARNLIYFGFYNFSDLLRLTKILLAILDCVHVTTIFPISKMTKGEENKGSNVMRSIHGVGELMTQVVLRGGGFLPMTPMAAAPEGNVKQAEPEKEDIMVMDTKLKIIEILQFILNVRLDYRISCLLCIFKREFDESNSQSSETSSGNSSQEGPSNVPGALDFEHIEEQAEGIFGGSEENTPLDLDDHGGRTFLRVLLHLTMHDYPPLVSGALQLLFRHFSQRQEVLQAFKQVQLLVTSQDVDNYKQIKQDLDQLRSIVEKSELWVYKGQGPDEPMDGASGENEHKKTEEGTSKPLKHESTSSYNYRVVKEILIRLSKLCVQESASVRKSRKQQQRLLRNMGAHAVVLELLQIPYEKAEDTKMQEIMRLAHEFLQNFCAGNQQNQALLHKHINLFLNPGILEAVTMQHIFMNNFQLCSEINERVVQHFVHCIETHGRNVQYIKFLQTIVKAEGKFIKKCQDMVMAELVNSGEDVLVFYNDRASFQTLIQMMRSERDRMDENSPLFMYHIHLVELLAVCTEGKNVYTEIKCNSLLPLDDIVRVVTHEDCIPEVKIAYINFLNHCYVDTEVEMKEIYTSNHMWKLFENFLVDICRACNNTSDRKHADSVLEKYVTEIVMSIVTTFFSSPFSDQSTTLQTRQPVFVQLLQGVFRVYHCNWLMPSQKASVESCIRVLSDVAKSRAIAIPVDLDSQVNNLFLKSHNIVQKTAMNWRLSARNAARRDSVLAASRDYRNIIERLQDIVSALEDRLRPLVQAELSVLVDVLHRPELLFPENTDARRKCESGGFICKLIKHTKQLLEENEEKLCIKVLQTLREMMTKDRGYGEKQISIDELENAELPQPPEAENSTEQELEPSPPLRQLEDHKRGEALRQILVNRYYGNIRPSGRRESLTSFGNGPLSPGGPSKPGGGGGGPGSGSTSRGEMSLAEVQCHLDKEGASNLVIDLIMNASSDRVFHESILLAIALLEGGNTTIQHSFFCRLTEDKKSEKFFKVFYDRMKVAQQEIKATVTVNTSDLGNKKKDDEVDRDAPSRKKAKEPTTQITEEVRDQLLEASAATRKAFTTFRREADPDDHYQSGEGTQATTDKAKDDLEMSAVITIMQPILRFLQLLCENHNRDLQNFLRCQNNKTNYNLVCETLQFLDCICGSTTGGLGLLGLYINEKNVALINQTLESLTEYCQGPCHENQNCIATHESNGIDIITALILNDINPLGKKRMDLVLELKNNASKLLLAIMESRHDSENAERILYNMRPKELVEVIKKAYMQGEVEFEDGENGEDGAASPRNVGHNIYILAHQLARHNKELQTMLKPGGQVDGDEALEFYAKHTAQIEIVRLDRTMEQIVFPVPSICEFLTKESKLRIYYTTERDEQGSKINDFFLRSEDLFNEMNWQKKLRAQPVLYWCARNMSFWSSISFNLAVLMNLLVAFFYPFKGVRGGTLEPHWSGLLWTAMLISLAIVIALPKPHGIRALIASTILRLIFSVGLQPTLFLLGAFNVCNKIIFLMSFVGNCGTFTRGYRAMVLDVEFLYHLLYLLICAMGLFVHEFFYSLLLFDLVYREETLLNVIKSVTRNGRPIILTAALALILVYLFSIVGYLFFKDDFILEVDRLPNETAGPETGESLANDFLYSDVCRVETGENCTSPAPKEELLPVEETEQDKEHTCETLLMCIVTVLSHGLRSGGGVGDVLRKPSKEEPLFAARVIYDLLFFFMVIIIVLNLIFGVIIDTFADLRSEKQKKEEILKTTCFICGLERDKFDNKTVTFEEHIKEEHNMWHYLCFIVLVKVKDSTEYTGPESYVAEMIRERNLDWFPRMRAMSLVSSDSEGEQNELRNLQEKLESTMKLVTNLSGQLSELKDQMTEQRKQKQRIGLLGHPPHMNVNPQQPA
Description: Tissue cultures were prepared using standard laboratory practice for the following tissues: human recombinant M1 clone, human recombinant M2 clone, guinea pig striatal membranes, rat cortical membranes, rat striatal membranes, rat forebrain membranes, bovine hippocampal membranes, guinea pig cerebellar membranes, rat kidney membranes, recombinant rat 5HT7 clone, and rat cerebellar membranes.
Inositol Triphosphate (IP3) Binding Assay
Rat cerebellar membranes
Radioligand: [^3 H]IP3 (10-30 Ci/mmol)
Final ligand concentration - [4.0 nM]
D-myo-inositol 1,4,5-triphosphate
Reactions are carried out in 50 mM TRIS-HCl (pH 8.3)
1 mM EDTA at 0° C. for 10 minutes. The reaction is
rapid vacuum filtration onto glass fiber filters.
onto the filters is determined and compared to control
order to ascertain any interactions of test compound with
inositol triphospate binding site.

[8] = test system: Glutamic Acid Decarboxylase (GAD); experiment: Glutamic Acid Decarboxylase (GAD) Enzyme Assay; format: biochemical; conditions: 10^-8 M; Rat corpus striatal membranes; [14C]L-Glutamic acid
Description: Radioimmunoassay studies were conducted with rat corpus striatal membranes using the following method.
Glutamic Acid Decarboxylase (GAD) Enzyme Assay
Rat corpus striatal membranes
Substrate: [^14 C]L-Glutamic acid (30-80 Ci/mmol)
Reactions are incubated in phosphate/mercapoethanol buffer
6.9) for 30 minutes at 37° C. The reaction is
stopped by the addition
of trichloroacetic acid and placement on ice. Radioactive
trapped in phenylethylamine/methanol and quantitated using
scintillation […] in order to ascertain any
of test compounds with the glutamic acid decarboxylase

[9] = molecular target: T11, Human recombinant M2 clone (Homo sapiens, UniProt P08172); experiment: Muscarinic--M2 Clone Binding Assay; conditions: read-out: Receptor Binding Activity Percent Inhibition Average (N = 2)
T11 construct: expressed in transfected cells
T11 sequence (P08172 1-466): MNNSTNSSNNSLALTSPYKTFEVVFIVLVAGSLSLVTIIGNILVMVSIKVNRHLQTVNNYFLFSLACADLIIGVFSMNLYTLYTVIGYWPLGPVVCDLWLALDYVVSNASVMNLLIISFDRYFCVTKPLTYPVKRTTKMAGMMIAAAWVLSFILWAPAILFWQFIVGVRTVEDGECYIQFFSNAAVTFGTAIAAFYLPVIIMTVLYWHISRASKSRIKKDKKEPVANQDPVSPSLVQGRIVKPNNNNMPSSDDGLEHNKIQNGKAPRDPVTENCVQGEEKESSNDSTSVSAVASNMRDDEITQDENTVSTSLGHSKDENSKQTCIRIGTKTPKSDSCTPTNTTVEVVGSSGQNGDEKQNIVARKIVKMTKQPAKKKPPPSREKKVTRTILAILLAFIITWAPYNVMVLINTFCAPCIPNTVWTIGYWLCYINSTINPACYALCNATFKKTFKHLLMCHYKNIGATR

Serotonin (5HT1) = Serotonin (5HT1) Binding Assay; conditions: 10^-6 M; Rat cortical membranes; [3H]Hydroxytryptamine binoxalate 3.0 nM

With `CN1CCCC1c1cccnc1` (centres unmarked) [Nicotine, reference compound] the inhibition at 1 µM (Serotonin (5HT1A)) was 3.3%, the inhibition at 1 µM (Histamine (H2)) was 45.9% and the inhibition at 1 µM [1] was 3.1%. The “Receptor Binding Activity Percent Inhibition Average (N = 2)” value [2] was 6.3%, the inhibition at 1 µM (Opiate (Delta)) was 10.1% and the half-life [3] was “one to two”. For the same molecule, the inhibition at 1 µM (GABA uptake site) was 12.1%, the “Receptor Binding Activity Percent Inhibition Average (N = 2)” value (Dopamine (D1 Central)) was 2.6% and the inhibition at 1 µM [4] was 1.5%. For the same molecule, the inhibition at 1 µM [5] was 8%, the “Receptor Binding Activity Percent Inhibition Average (N = 2)” value (dopamine uptake site) was 9.2% and the “amplitude of the evoked currents” value [6] was “more than doubled”. The inhibition at 1 µM (Histamine (H3)) was 13.5%, the inhibition at 1 µM [7] was 3.2% and the “Percent Inhibition” value [8] was 40%. For the same molecule, the inhibition at 1 µM [9] was 4.4% and the “Receptor Binding Activity Percent Inhibition Average (N = 2)” value (Serotonin (5HT1)) was -1.4%.
